Like-named read-outs stand apart in the source and are kept apart here.
How the values were obtained:
[1] = target: T1, acid phosphatase derived from Morganella morganii (Morganella morganii, UniProt P28581); assay type: biochemical
T1 construct: homo-oligomer of about 25 kDa subunits; 20-residue signal peptide removed
T1 sequence (P28581 21-249): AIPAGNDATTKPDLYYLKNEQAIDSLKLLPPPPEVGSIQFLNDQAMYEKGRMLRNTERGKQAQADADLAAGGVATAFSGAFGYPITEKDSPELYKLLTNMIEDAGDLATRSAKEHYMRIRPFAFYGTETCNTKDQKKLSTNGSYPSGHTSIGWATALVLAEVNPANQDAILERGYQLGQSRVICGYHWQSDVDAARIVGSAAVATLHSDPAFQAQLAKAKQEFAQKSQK

[2] = target: T2, acid phosphatase derived from Escherichia blattae (Shimwellia blattae, UniProt I2BB71); assay type: biochemical, Escherichia blattae JCM 1650
T2 construct: homo-oligomer; 18-residue signal peptide removed
T2 sequence (I2BB71 19-249): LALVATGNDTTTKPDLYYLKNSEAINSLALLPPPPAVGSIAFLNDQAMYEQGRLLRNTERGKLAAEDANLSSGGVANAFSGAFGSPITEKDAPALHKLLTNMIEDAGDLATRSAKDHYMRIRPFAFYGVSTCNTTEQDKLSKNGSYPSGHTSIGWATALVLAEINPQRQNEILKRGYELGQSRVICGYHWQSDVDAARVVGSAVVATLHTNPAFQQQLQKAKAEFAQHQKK

[3] = target: T3, acid phosphatase sample derived from Escherichia blattae (Shimwellia blattae, UniProt I2BB71); experiment: Phosphorylation reaction of various nucleosides by acid phosphatase sample; assay type: biochemical, Escherichia blattae JCM 1650; settings: sodium pyrophosphate 15 g/dl, enzyme 50 units/dl, 3 hours; for Produced amount of nucleoside-5'-ester: nucleoside 3 g/dl, pH 4.0, 35° C.
T3 construct: homo-oligomer; signal peptide removed
Protocol: (§1) Incidentally, in the reaction to produce nucleoside-5'-phosphate esters using nucleosides other than inosine as raw materials, the nucleosides as raw materials and produced nucleoside-5'-phosphate esters were analyzed by HPLC as described above.
(§2) Sodium pyrophosphate (15 g/dl) and inosine (3 g/dl) were dissolved in sodium acetate buffers each having pH of 5.5, 5.0, 4.5, 4.0, and 3.5, to which the enzyme sample described above was added so that a concentration of 50 units/dl was obtained. […] Produced inosinic acid contained only 5'-inosinic acid. By-production of 2'-inosinic acid and 3'-inosinic acid was not observed at all. The velocity of 5'-inosinic acid production was maximum at pH 5.0. However, the maximum accumulated amount of 5'-inosinic acid was higher at lower pH. The reaction condition at pH 4.0 was most efficient for production of 5'-inosinic acid. 5'-Inosinic acid was produced and accumulated in an amount of 1.56 g/dl by performing the reaction at 30° C. at pH 4.0 for 3 hours.
The reaction mixture was incubated at 35° C. for 3 hours while maintaining pH at 4.0.

[4] = target: T4, acid phosphatase sample derived from Morganella morganii (Morganella morganii, UniProt P28581); experiment: as above; assay type: biochemical, Morganella morganii NCIMB 10466; settings: sodium pyrophosphate 10 g/dl, nucleoside 2 g/dl, enzyme 50 units/dl, pH 4.0, 30° C., 3 hours
T4 construct: homo-oligomer; signal peptide removed
Protocol: as §1
as §2, with “(10” for “(15”, “(2” for “(3”, “acid, in which 5'-inosinic” for “acid. 5'-Inosinic”, “2.60” for “1.56”, “reaction” for “reaction at 30° C. at pH 4.0”
(§3) The reaction mixture was incubated at 30° C. for 3 hours while maintaining pH at 4.0.

[5] = system: Escherichia coli JM109/pMPI530; experiment: Production of various nucleoside-5'-phosphate esters by microbial cells of the mutant strain; assay type: cell-based; settings: sodium pyrophosphate 12 g/dl, nucleoside 6 g/dl, cells 100 mg/dl dry weight, pH 4.0, 30° C., 22 hours
Excerpt: (§4) Produced nucleotide contained only nucleoside-5'-phosphate ester. By-production of nucleoside-2'-phosphate ester and nucleoside-3'-phosphate ester was not observed at all.

[6] = system: Escherichia coli JM109/pEPI330; experiment: as above; assay type: cell-based; settings: sodium pyrophosphate 12 g/dl, nucleoside 6 g/dl, cells 200 mg/dl dry weight, pH 4.0, 35° C., 32 hours
Excerpt: as §4

[7] = system: Escherichia coli JM109/pMPI530; experiment: Production of 5'-inosinic acid from various phosphate group donors by microbial cells of the mutant strain; assay type: cell-based; settings: inosine 6 g/dl, phosphate group donor 10 g/dl, cells 100 mg/dl dry weight, buffer pH 4.5, pH maintained at 4.0, 30° C., 22 hours
Excerpt: (§5) 5'-Inosinic acid was efficiently produced and accumulated by using any of the phosphate group donors. However, the accumulated amount of 5'-inosinic acid was the highest when polyphosphoric acid was used as the phosphate group donor.

[8] = system: Escherichia coli JM109/pEPI330; experiment: as above; assay type: cell-based; settings: inosine 6 g/dl, phosphate group donor 12 g/dl, cells 200 mg/dl dry weight, pH 4.0, 35° C., 32 hours
Excerpt: as §5

[9] = target: T3, acid phosphatase sample derived from Escherichia blattae; experiment: Production of 5'-inosinic acid from various phosphate group donors by acid phosphatase sample; assay type: biochemical, Escherichia blattae JCM 1650; settings: inosine 2 g/dl, phosphate group donor 10 g/dl, enzyme 50 units/dl, pH 4.0, 35° C., 3 hours
Protocol: The reaction miture was incubated at 35° C. for 3 hours while maintaining pH at 4.0.

[10] = target: T4, acid phosphatase sample derived from Morganella morganii; experiment: as above; assay type: biochemical, Morganella morganii NCIMB 10466; settings: inosine 2 g/dl, phosphate group donor 10 g/dl, enzyme 50 units/dl, pH 4.0, 30° C., 3 hours
Protocol: as §3

[11] = purified Morganella morganii enzyme
[12] = purified Escherichia blattae enzyme

Compound: [Ag+2] [Ag^2+]
- Effect of the addition of metal ion and inhibitor on enzyme activity [1, 11]: inhibited
- Effect of the addition of metal ion and inhibitor on enzyme activity [2, 12]: inhibited

Compound: [Cu+2] [Cu^2+]
- Effect of the addition of metal ion and inhibitor on enzyme activity [1, 11]: inhibited
- Effect of the addition of metal ion and inhibitor on enzyme activity [2, 12]: inhibited

Compound: Nc1ccn([C@@H]2O[C@H](CO)[C@@H](O)[C@H]2O)c(=O)n1 [Cytidine, cytidine]
- Produced amount of nucleoside-5'-ester [3]: 1.22 g/dL
- Produced amount of nucleoside-5'-ester [4]: 0.98 g/dL
- Produced amount of nucleoside-5'-phosphate ester [5]: 7.82 g/dL
- Produced amount of nucleoside-5'-phosphate ester [6]: 6.60 g/dL

Compound: NC(=O)OP(=O)([O-])[O-].[Na+].[Na+] [Disodium carbamyl phosphate, disodium carbamyl phosphate]
- Produced 5'-inosinic acid [7]: 9.89 g/dL
- Produced 5'-inosinic acid [8]: 7.73 g/dL
- Produced 5'-inosinic acid [9]: 1.53 g/dL
- Produced 5'-inosinic acid [10]: 2.54 g/dL

Compound: O=P([O-])([O-])Oc1ccccc1.[Na+].[Na+] [Disodium phenylphosphate, disodium phenylphosphate]
- Produced 5'-inosinic acid [7]: 9.62 g/dL
- Produced 5'-inosinic acid [8]: 7.60 g/dL
- Produced 5'-inosinic acid [9]: 1.50 g/dL
- Produced 5'-inosinic acid [10]: 2.33 g/dL

Compound: [Fe+2] [Fe^2+]
- Effect of the addition of metal ion and inhibitor on enzyme activity [2, 12]: inhibited

Compound: Nc1nc2c(ncn2[C@@H]2O[C@H](CO)[C@@H](O)[C@H]2O)c(=O)[nH]1 [Guanosine, guanosine]
- Produced amount of nucleoside-5'-ester [3]: 1.05 g/dL
- Produced amount of nucleoside-5'-ester [4]: 1.90 g/dL
- Produced amount of nucleoside-5'-phosphate ester [5]: 6.72 g/dL
- Produced amount of nucleoside-5'-phosphate ester [6]: 4.77 g/dL

Compound: [Hg+2] [Hg^2+]
- Effect of the addition of metal ion and inhibitor on enzyme activity [1, 11]: inhibited
- Effect of the addition of metal ion and inhibitor on enzyme activity [2, 12]: inhibited

Compound: OC[C@H]1O[C@@H](n2cnc3c(O)ncnc32)[C@H](O)[C@@H]1O [Inosine, inosine]
- 5'-inosinic acid produced and accumulated ([3]; inosine 3 g/dl, pH 4.0, 30° C.): 1.56 g/dL
- Produced amount of nucleoside-5'-ester [3]: 1.56 g/dL
- Produced amount of nucleoside-5'-ester [4]: 2.60 g/dL
- Produced amount of nucleoside-5'-phosphate ester [5]: 10.01 g/dL
- Produced amount of nucleoside-5'-phosphate ester [6]: 7.45 g/dL

Compound: [Pb+2] [Pb^2+]
- Effect of the addition of metal ion and inhibitor on enzyme activity [1, 11]: inhibited
- Effect of the addition of metal ion and inhibitor on enzyme activity [2, 12]: inhibited

Compound: O=P(O)(O)OP(=O)(O)OP(=O)(O)O [Sodium tripolyphosphate, sodium tripolyphosphate]
- Produced 5'-inosinic acid [7]: 8.93 g/dL
- Produced 5'-inosinic acid [8]: 5.96 g/dL
- Produced 5'-inosinic acid [9]: 1.20 g/dL
- Produced 5'-inosinic acid [10]: 2.10 g/dL

Compound: O=c1ccn([C@@H]2O[C@H](CO)[C@@H](O)[C@H]2O)c(=O)[nH]1 [Uridine, uridine]
- Produced amount of nucleoside-5'-ester [3]: 1.87 g/dL
- Produced amount of nucleoside-5'-ester [4]: 1.30 g/dL
- Produced amount of nucleoside-5'-phosphate ester [5]: 11.90 g/dL
- Produced amount of nucleoside-5'-phosphate ester [6]: 8.93 g/dL

Compound: O=C(O)CI [iodoacetic acid]
- Effect of the addition of metal ion and inhibitor on enzyme activity [1]: inhibited
- Effect of the addition of metal ion and inhibitor on enzyme activity [2]: inhibited

Compound: sodium polyphosphate
- Produced 5'-inosinic acid [7]: 11.45 g/dL
- Produced 5'-inosinic acid [8]: 8.84 g/dL
- Produced 5'-inosinic acid [9]: 1.79 g/dL
- Produced 5'-inosinic acid [10]: 2.72 g/dL

From patent publication US6010851A, “Method for producing nucleoside-5'-phosphate ester” (Ajinomoto Co., Inc., priority 1995, dated 2000)
